Measurements from patent US20250034194A1, “INHIBITORS OF ABNORMAL PHOSPHORYLATION AND TAU PROTEIN AGGREGATION” (UNIVERSITE DE PICARDIE JULES VERNE, priority 2021, published 2025).

Tests used:
[1] = target: T1, tau protein (4R2N, 441 amino acids) (Homo sapiens, UniProt P10636); experiment: In vitro abnormal tau phosphorylation by GSK3β, competition with heparin (western blot); assay type: biochemical
T1 construct: purchased Millipore (tau); Promega (GSK3β)
From the text: Phosphorylation of tau protein is the most common post-translational modification to regulate tau activity and functions. The longest tau isoform (4R2N, 441 amino acids) containing 85 potential phosphorylation sites was used. In vitro phosphorylation of the tau protein is done by induction, on the one hand, (FIG. 5) and, on the other hand, according to a competition process between the LG2A molecules and heparin, conventionally used to induce abnormal tau phosphorylation in vitro (FIGS. 3, 4, 6, 7, 8, 9 and 10).
For abnormal tau phosphorylation tests, GSK3p, a kinase centrally involved in this process in the brains of subjects with Alzheimer's disease (AD), was used. Analysis of tau phosphorylation by GSK3b at sites characteristic of AD is possible by the western blot technique using specific antibodies that recognize abnormally phosphorylated sites in the brain or cerebrospinal fluid of AD subjects, such as the AT270 antibody which recognizes threonine 181 (Thr181), the PHF1 antibody which recognizes serines 396 and 404 (Ser396/Ser404), and the AT8 antibody, which recognizes the Ser199/Ser202/Thr205 site.
By competition: The tau protein (40 μg/mL) is phosphorylated by the GSK3β enzyme at 4 ng/mL (Promega) in the presence of ATP (Sigma-Aldrich) at 48 μM and protease inhibitors (Sigma-Aldrich, 1/100), in the buffer mentioned above. The ability of the LG2A molecules (60 μg/mL) to compete with heparin (12 μg/mL; Sigma-Aldrich) is evaluated. Thus if the signal in the presence of the molecules is less than that obtained with heparin alone, the molecules are then defined as “protectors” from abnormal tau phosphorylation.
In both systems (induction or competition), the tau protein is incubated at 37° C. with stirring in the presence of the different elements presented above. The reaction kinetics are monitored by taking 8 μL of the samples at 1.5 h, 3 h and 6 h of incubation. Loading buffer (Euromedex) and β-mercaptoethanol (Sigma-Aldrich) are added to each sample. The samples are then stored at −20° C. until analysis by western blot.
After denaturation of the samples by heating at 95° C. for 5 minutes, the samples are deposited simultaneously with the molecular weight marker (Precision Plus Protein™ Dual Color Standards; BIO-RAD) on a 10% acrylamide gel placed in an electrophoresis tank containing migration buffer (0.25 M Tris; 1.6 M Glycine; […]; pH 8.6).
The controls used for this phosphorylation experiment followed by western blot are: • the “native tau” protein, that is to say the non-phosphorylated tau protein. • the tau protein phosphorylated by GSK3b alone in the absence of heparin. • the tau protein phosphorylated in the presence of heparin, denoted “tau+heparin”. • the “external standard” corresponding to the tau protein phosphorylated in the presence of heparin for 3 h. This standard is carried out in an experiment independently of the phosphorylation experiments in the presence of LG2A compounds. It ensures that the western blot is carried out correctly.
Then the membrane is incubated overnight with stirring at +4° C. in a solution of PBS, 0.1% Tween and 1% milk containing the primary antibody specific for tau phosphorylation sites (AT270, ThermoScientific or S199-202, Millipore).
After incubation of the PVDF membrane in the chosen primary antibody, a succession of 3 washes of 5 minutes of the membrane is carried out in PBS and 0.1% Tween with stirring and the membrane is incubated for 1 h with stirring at room temperature in a solution of 1×PBS, 0.1% Tween and 1% milk containing the diluted secondary antibody (Jackson Immuno-Research).

[2] = test system: SH-SY5Y; experiment: Cytotoxicity study, MTT test; assay type: cell-based; conditions: differentiated SH-SY5Y; 0.1 to 100 μg/mL; 24 hours
Procedure: In order to evaluate the level of toxicity of these molecules according to their concentration in the cellular environment, an MTT test (3-(4,5-dimethylthiazol-2-yl)-2,5-diphenyl tetrazolium bromide) is carried out (FIGS. 11 and 12) upstream of the phosphorylation tests in cellulo.
SH-SY5Y (ATCC-CRL-2266) are developed in Dulbecco's Modified Eagle Complete Medium (DMEM-GlutaMAX™, Life Technologies) with 10% foetal bovine serum (FBS) and 1% penicillin/streptomycin in an incubator at 37° C. with 5% CO2.
For this, the SH-SY5Y cells are cultured in a 6-well plate at a cell density of 200,000 cells/well and are differentiated using retinoic acid (10 μM, Sigma Aldrich) for 5 days. On day 6, the cells are brought into contact with LG2A molecules at different concentrations (0.1, 1, 10 or 100 μg/mL), in a final volume of 2 mL. After 24 hours, MTT (5 μg/mL; Sigma-Aldrich) is added to the cell medium for 2 hours at 37° C. Then the medium is removed and 200 μL of pure dimethylsulfoxide (DMSO, Sigma-Aldrich) are added to each well. The entire contents of each well are transferred to a 96-well plate and the absorbance is measured at 562 nm using the Infinite M1000 spectrofluorometer (Tecan).

[3] = target: T2, tau protein (4R2N isoform, 441 amino acids) (Homo sapiens, UniProt P10636); experiment: Induction of tau protein aggregation, Thioflavin T incorporation; assay type: biochemical; conditions: tau 0.71 mg/mL, compound 0.175 mg/mL (mass ratio 4/1); up to 72 h
T2 construct: purchased Tebu-bio (custom synthesized)
Procedure: The ability of the 16-carbon disulphated maltobionamide compound “Mal16diS” to induce tau protein aggregation, another step in the occurrence of neurofibrillary tangles, was evaluated. Thus, the ability of this molecule to induce or inhibit the aggregation of tau in vitro (FIG. 10) was evaluated in a test described in the article by Sui et al, 2015 in which tau aggregation is monitored by the incorporation of Thioflavin T (ThT). […]
100 μL of ThT (Sigma-Aldrich) at 50 μM is immediately added to each well, then the plate is incubated at 37° C. with stirring. Monitoring the formation of tau protein aggregates is possible by monitoring the incorporation of thioflavin leading to its fluorescence emission and is carried out by reading at 0, 24, 40, 48 and 71 h at Exc wavelength 450 nm/Em wavelength 510 nm, by means of an Infinite M1000 spectrofluorometer (Tecan).

T1 sequence (P10636 1-441 isoform P10636-8): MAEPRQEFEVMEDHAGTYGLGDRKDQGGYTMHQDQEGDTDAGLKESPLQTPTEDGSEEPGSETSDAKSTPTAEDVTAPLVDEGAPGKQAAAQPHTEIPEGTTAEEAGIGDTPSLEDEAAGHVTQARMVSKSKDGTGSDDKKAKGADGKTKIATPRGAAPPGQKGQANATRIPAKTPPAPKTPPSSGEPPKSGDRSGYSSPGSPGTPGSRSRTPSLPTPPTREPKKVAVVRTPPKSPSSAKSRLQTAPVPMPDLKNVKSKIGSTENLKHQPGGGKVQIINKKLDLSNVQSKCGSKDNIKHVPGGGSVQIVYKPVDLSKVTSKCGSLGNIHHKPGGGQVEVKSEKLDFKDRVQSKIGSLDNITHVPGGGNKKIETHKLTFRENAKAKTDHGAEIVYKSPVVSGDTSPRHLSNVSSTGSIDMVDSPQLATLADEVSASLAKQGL
T2 sequence (P10636 1-441 isoform P10636-8): as above

CCCCCCCCCCCCCCCCNC(=O)[C@H](O)[C@@H](O)[C@H](O[C@H]1OC(COS(=O)(=O)[O-])[C@@H](O)C(O)[C@@H]1O)[C@H](O)COS(=O)(=O)[O-].[Na+].[Na+] (stereo partly drawn) [Mal16diS, N-Hexadecyl-6,6′-Di-O-Sulfo-D-Maltobioamide Disodium]
abnormal phosphorylation of tau (p-tau) revealed by AT270 and Ser199/202 antibodies ([1]; in presence of heparin, after 3 h of reaction): inhibited
ability to compete with heparin for abnormal tau phosphorylation by GSK3β ([1]; molecule 60 μg/mL vs heparin 12 μg/mL, 1.5 to 6 h of reaction, AT270, Ser199/202): total competition with heparin
cytotoxicity (MTT) [2]: not cytotoxic
induction of tau protein aggregation (Thioflavin-T) [3]: induces the aggregation of tau protein more weakly compared to heparin
